Measurements reported in PubChem BioAssay AID1963858 (Molecular Pharmacology Branch, DTP, NCI, 2024).

System: HOP-62 multicell spheroids with HUVEC/MSC, viability
Assay: Anticancer human tumor HOP-62 cell line growth inhibition [KRAS2];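 also: viability read after a week of compound exposure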;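 as to viability, T/C: 100% = DMSO vehicle-treated spheroids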
Settings: for IC50: curve of first compound; for viability, T/C: stronger effect = lower value
Outline: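 Combination screen of spheroid viability in tumor-cell co-cultures with endothelial (HUVEC) and mesenchymal stem cell stroma. Each agent was tested in half-log dilutions, topping at clinical Cmax or at 10 microM without a known Cmax.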

[1] = second compound 0.1 µM, first compound 0.0316 µM
[2] = second compound 0.1 µM, first compound 0.1 µM
[3] = second compound 0.1 µM, first compound 0.316 µM
[4] = second compound 0.1 µM, first compound 1 µM
[5] = second compound 0.1 µM, first compound 3.16 µM
[6] = second compound 0.1 µM, first compound 10 µM
[7] = second compound 0.316 µM, first compound 0.0316 µM
[8] = second compound 0.316 µM, first compound 0.1 µM
[9] = second compound 0.316 µM, first compound 0.316 µM
[10] = second compound 0.316 µM, first compound 1 µM
[11] = second compound 0.316 µM, first compound 3.16 µM
[12] = second compound 0.316 µM, first compound 10 µM
[13] = second compound 1 µM, first compound 0.0316 µM
[14] = second compound 1 µM, first compound 0.1 µM
[15] = second compound 1 µM, first compound 0.316 µM
[16] = second compound 1 µM, first compound 1 µM
[17] = second compound 1 µM, first compound 3.16 µM
[18] = second compound 1 µM, first compound 10 µM
[19] = second compound 3.16 µM, first compound 0.0316 µM
[20] = second compound 3.16 µM, first compound 0.1 µM
[21] = second compound 3.16 µM, first compound 0.316 µM
[22] = second compound 3.16 µM, first compound 1 µM
[23] = second compound 3.16 µM, first compound 3.16 µM
[24] = second compound 3.16 µM, first compound 10 µM
[25] = second compound 10 µM, first compound 0.0316 µM
[26] = second compound 10 µM, first compound 0.1 µM
[27] = second compound 10 µM, first compound 0.316 µM
[28] = second compound 10 µM, first compound 1 µM
[29] = second compound 10 µM, first compound 3.16 µM
[30] = second compound 10 µM, first compound 10 µM
[31] = second compound 0.1 µM, first compound 0.01 µM
[32] = second compound 0.316 µM, first compound 0.01 µM
[33] = second compound 1 µM, first compound 0.01 µM
[34] = second compound 3.16 µM, first compound 0.01 µM
[35] = second compound 10 µM, first compound 0.01 µM
[36] = second compound 0.1 µM, first compound 0.00316 µM
[37] = second compound 0.316 µM, first compound 0.00316 µM
[38] = second compound 1 µM, first compound 0.00316 µM
[39] = second compound 3.16 µM, first compound 0.00316 µM
[40] = second compound 10 µM, first compound 0.00316 µM

| Compound | IC50 (second compound 0.1 µM) [µM] | IC50 (second compound 0.316 µM) [µM] | IC50 (second compound 1 µM) [µM] | IC50 (second compound 3.16 µM) [µM] | IC50 (second compound 10 µM) [µM] | viability, T/C [1] [%] | viability, T/C [2] [%] | viability, T/C [3] [%] | viability, T/C [4] [%] | viability, T/C [7] [%] | viability, T/C [8] [%] | viability, T/C [9] [%] | viability, T/C [10] [%] | viability, T/C [13] [%] | viability, T/C [14] [%] | viability, T/C [15] [%] | viability, T/C [19] [%] | viability, T/C [20] [%] | viability, T/C [25] [%] | viability, T/C [26] [%] | also measured |
| --- | --- | --- | --- | --- | --- | --- | --- | --- | --- | --- | --- | --- | --- | --- | --- | --- | --- | --- | --- | --- | --- |
| CC(C)NCC(C(=O)N1CCN(c2ncnc3c2C(C)CC3O)CC1)c1ccc(Cl)cc1 (stereo not given) + COc1cc2nc(C)nc(NC(C)c3cc(N)cc(C(F)(F)F)c3)c2cc1OC1CCOC1 | 0.649 | 0.412 | 0.222 | 0.416 | < 0.0316 | 101 | 85.5 | 73 | 38.3 | 92.5 | 85.4 | 58.7 | 21.6 | 91 | 67.8 | 42.8 | 63.1 | 59.1 | 49.1 | 33.8 | viability, T/C [5]: 9.92%; viability, T/C [6]: 6.97%; viability, T/C [11]: 7.46%; viability, T/C [12]: 6.79%; viability, T/C [16]: 20%; viability, T/C [17]: 5.76%; viability, T/C [18]: 3.7%; viability, T/C [21]: 64%; viability, T/C [22]: 11.2%; viability, T/C [23]: 6.02%; viability, T/C [24]: 5.53%; viability, T/C [27]: 23.7%; viability, T/C [28]: 10.7%; viability, T/C [29]: 8.2%; viability, T/C [30]: 5.6% |
| CC1COCCN1c1cc(-c2ccnn2C)c2ccnc(-c3ccn[nH]3)c2n1 (stereo not given) + COc1cc2nc(C)nc(NC(C)c3cc(N)cc(C(F)(F)F)c3)c2cc1OC1CCOC1 | < 0.01 | 0.0686 | 0.0542 | 0.0228 | 0.0109 | 6.78 | 7.26 | 6.53 | 8.4 | 83.5 | 33.9 | 16.5 | 13.4 | 65.8 | 31.4 | 19.6 | 38.2 | 22.9 | 36 | 27.4 | viability, T/C [31]: 8.83%; viability, T/C [5]: 10.7%; viability, T/C [32]: 125%; viability, T/C [11]: 14.4%; viability, T/C [33]: 120%; viability, T/C [16]: 12.5%; viability, T/C [17]: 11.2%; viability, T/C [34]: 77.4%; viability, T/C [21]: 13.9%; viability, T/C [22]: 9.69%; viability, T/C [23]: 10.8%; viability, T/C [35]: 52.1%; viability, T/C [27]: 22.3%; viability, T/C [28]: 15.8%; viability, T/C [29]: 12.9% |
| CCN1CCN(Cc2ccc(Nc3ncc(F)c(-c4cc(F)c5nc(C)n(C(C)C)c5c4)n3)nc2)CC1 + COc1cc2nc(C)nc(NC(C)c3cc(N)cc(C(F)(F)F)c3)c2cc1OC1CCOC1 | 0.911 | 0.979 | 0.613 | 0.0232 | < 0.00316 | 84.2 | 79.4 | 73.8 | 45.6 | 85.6 | 69.9 | 63.2 | 49.2 | 67.6 | 69.9 | 49.6 | 50.6 | 41.8 | 24.4 | 21.9 | viability, T/C [36]: 102%; viability, T/C [31]: 97%; viability, T/C [37]: 101%; viability, T/C [32]: 93.5%; viability, T/C [38]: 80.8%; viability, T/C [33]: 74.4%; viability, T/C [16]: 47.8%; viability, T/C [39]: 55.5%; viability, T/C [34]: 52.9%; viability, T/C [21]: 42.4%; viability, T/C [22]: 34.8%; viability, T/C [40]: 49.9%; viability, T/C [35]: 32.2%; viability, T/C [27]: 18.5%; viability, T/C [28]: 0.89% |
| CCNC(=O)CC1N=C(c2ccc(Cl)cc2)c2cc(OC)ccc2-n2c(C)nnc21 (stereo not given) + COc1cc2nc(C)nc(NC(C)c3cc(N)cc(C(F)(F)F)c3)c2cc1OC1CCOC1 | 0.271 | 0.189 | 0.193 | 0.0608 | < 0.0316 | 90.5 | 75.9 | 44.3 | 29.4 | 90.4 | 65 | 37.8 | 23.7 | 89.2 | 59.8 | 46.9 | 60.1 | 41.7 | 43 | 35.9 | viability, T/C [5]: 21.9%; viability, T/C [6]: 18.2%; viability, T/C [11]: 19%; viability, T/C [12]: 18.5%; viability, T/C [16]: 17.5%; viability, T/C [17]: 16.9%; viability, T/C [18]: 14.4%; viability, T/C [21]: 29.1%; viability, T/C [22]: 17.2%; viability, T/C [23]: 15.5%; viability, T/C [24]: 15.2%; viability, T/C [27]: 29.3%; viability, T/C [28]: 15.8%; viability, T/C [29]: 9.2%; viability, T/C [30]: 4.11% |
| Cn1nccc1Nc1nccc(-c2cc3c(s2)C(C)(C)N(CCN2CCOCC2)C3=O)n1 + COc1cc2nc(C)nc(NC(C)c3cc(N)cc(C(F)(F)F)c3)c2cc1OC1CCOC1 | 0.795 | 0.801 | 0.769 | 0.389 | 0.189 | 107 | 103 | 76.2 | 44.8 | 106 | 98.6 | 77.9 | 45 | 101 | 88.3 | 67.9 | 93.8 | 78.7 | 66.7 | 60.4 | viability, T/C [5]: 25.2%; viability, T/C [6]: 25.8%; viability, T/C [11]: 20.6%; viability, T/C [12]: 22.8%; viability, T/C [16]: 48%; viability, T/C [17]: 22.1%; viability, T/C [18]: 20.9%; viability, T/C [21]: 54.2%; viability, T/C [22]: 33.1%; viability, T/C [23]: 22%; viability, T/C [24]: 22.3%; viability, T/C [27]: 41.6%; viability, T/C [28]: 28.2%; viability, T/C [29]: 25.1%; viability, T/C [30]: 24% |
| Cn1ncnc1[C@H]1c2n[nH]c(=O)c3cc(F)cc(c23)N[C@@H]1c1ccc(F)cc1 + COc1cc2nc(C)nc(NC(C)c3cc(N)cc(C(F)(F)F)c3)c2cc1OC1CCOC1 | > 0.1 | > 0.1 | > 0.1 | 0.0742 | 0.00296 | 97.6 | 70.4 |  |  | 83.5 | 78.8 |  |  | 66 | 57.1 |  | 48.5 | 51 | 42.8 | 41.6 | viability, T/C (second compound 0.1 µM, first compound 0.000316 µM): 95.1%; viability, T/C (second compound 0.1 µM, first compound 0.001 µM): 102%; viability, T/C [36]: 94.3%; viability, T/C [31]: 87%; viability, T/C (second compound 0.316 µM, first compound 0.000316 µM): 104%; viability, T/C (second compound 0.316 µM, first compound 0.001 µM): 91.7%; viability, T/C [37]: 86.8%; viability, T/C [32]: 94.2%; viability, T/C (second compound 1 µM, first compound 0.000316 µM): 96%; viability, T/C (second compound 1 µM, first compound 0.001 µM): 89.5%; viability, T/C [38]: 69.9%; viability, T/C [33]: 66.6%; viability, T/C (second compound 3.16 µM, first compound 0.000316 µM): 75.7%; viability, T/C (second compound 3.16 µM, first compound 0.001 µM): 85.6%; viability, T/C [39]: 72.8%; viability, T/C [34]: 58.1%; viability, T/C (second compound 10 µM, first compound 0.000316 µM): 58.6%; viability, T/C (second compound 10 µM, first compound 0.001 µM): 59%; viability, T/C [40]: 50.8%; viability, T/C [35]: 40.8% |
